In the supplement of paper PMC10307832:

How the values were obtained:
Assay in all cases: relative viability (nuclei count vs DMSO), 5 days (fraction); higher = more cells survive
[1] = compound: C[C@@H](Oc1cc(-c2cnn(C3CCNCC3)c2)cnc1N)c1c(Cl)ccc(F)c1Cl [Crizotinib] + O=C(CCCCCCC(=O)Nc1ccccc1)NO [Vorinostat] (partner 1 µM)
Summary of the method: (§1)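 Five library-drug doses in √10 steps were combined with a fixed anchor-drug dose, or a single drug was given alone, by pin tool to lung cancer cell lines in 1536-well plates the day after seeding. Nuclei were stained and counted after 5 days. Relative viability is the nuclei count in treated wells over that in vehicle wells, taken as the median of duplicate plates.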

[2] = compound: CC(C)C[C@H](NC(=O)[C@H](CCc1ccccc1)NC(=O)CN1CCOCC1)C(=O)N[C@@H](Cc1ccccc1)C(=O)N[C@@H](CC(C)C)C(=O)[C@@]1(C)CO1 [Carfilzomib] + O=C(CCCCCCC(=O)Nc1ccccc1)NO [Vorinostat] (partner 1 µM)
Summary of the method: as §1

[3] = compound: O=C(c1cc(Cc2n[nH]c(=O)c3ccccc23)ccc1F)N1CCN(C(=O)C2CC2)CC1 [Olaparib] + CS(=O)(=O)N1CCN(Cc2cc3nc(-c4cccc5[nH]ncc45)nc(N4CCOCC4)c3s2)CC1 [Pictilisib] (partner 1 µM)
Summary of the method: as §1

[4] = compound: O=C(c1cc(Cc2n[nH]c(=O)c3ccccc23)ccc1F)N1CCN(C(=O)C2CC2)CC1 [Olaparib] + Nc1nc2[nH]cc(CCc3ccc(C(=O)N[C@@H](CCC(=O)O)C(=O)O)cc3)c2c(=O)[nH]1 [Pemetrexed] (partner 0.2 µM)
Summary of the method: as §1

| Cell Line | relative viability ([1]; first compound 0.01 µM) | relative viability ([1]; first compound 0.03162 µM) | relative viability ([1]; first compound 0.1 µM) | relative viability ([1]; first compound 1 µM) | relative viability ([2]; first compound 0.001 µM) | relative viability ([2]; first compound 0.003162 µM) | relative viability ([2]; first compound 0.01 µM) | relative viability ([2]; first compound 0.03162 µM) | relative viability ([2]; first compound 0.1 µM) | relative viability ([3]; first compound 0.08 µM) | relative viability ([3]; first compound 0.253 µM) | relative viability ([3]; first compound 2.53 µM) | relative viability ([3]; first compound 8 µM) | relative viability ([4]; first compound 0.08 µM) | relative viability ([4]; first compound 0.253 µM) | relative viability ([4]; first compound 2.53 µM) | relative viability ([4]; first compound 8 µM) | relative viability ([1]; first compound 0.3162 µM) |
| --- | --- | --- | --- | --- | --- | --- | --- | --- | --- | --- | --- | --- | --- | --- | --- | --- | --- | --- |
| LC-2-ad | 0.703 | 0.656 | 0.699 | 0.704 | 0.811 | 0.755 | 0.75 | 0.44 | 0.245 | 0.529 | 0.523 | 0.491 | 0.336 | 0.25 | 0.252 | 0.28 | 0.276 | – |
| LCLC-97TM1 | 0.672 | 0.697 | 0.686 | 0.658 | 0.705 | 1.03 | 0.346 | 0.0531 | 0.0462 | 0.263 | 0.233 | 0.174 | 0.152 | 0.209 | 0.209 | 0.2 | 0.141 | 0.223 |
| LCLC-103H | 0.716 | 0.869 | 0.841 | 0.8 | 0.809 | 0.941 | 0.772 | 0.497 | 0.218 | 0.682 | 0.557 | 0.53 | 0.52 | 0.421 | 0.499 | 0.493 | 0.426 | 0.434 |
| LK-2 | 0.346 | 0.29 | 0.314 | 0.277 | 0.257 | 0.345 | 0.177 | 0.189 | 0.175 | 0.752 | 0.587 | 0.599 | 0.5 | 0.298 | 0.304 | 0.257 | 0.327 | 0.252 |
| LOU-NH91 | 0.893 | 0.927 | 0.989 | 0.836 | 1.03 | 1.03 | 0.443 | 0.302 | 0.328 | 0.559 | 0.524 | 0.515 | 0.503 | 0.389 | 0.366 | 0.381 | 0.343 | – |
| LU99A | 0.448 | 0.515 | 0.512 | 0.507 | 0.467 | 0.649 | 0.404 | 0.225 | 0.167 | 0.303 | 0.293 | 0.3 | 0.296 | 0.187 | 0.212 | 0.161 | 0.148 | 0.459 |
| LXF-289 | 0.75 | 0.799 | 0.757 | 0.786 | 0.747 | 0.795 | 0.738 | 0.0661 | 0.101 | 0.825 | 0.713 | 0.729 | 0.74 | 1 | 0.883 | 0.963 | 1 | 0.599 |
| NCI-H23 | 0.465 | 0.648 | 0.596 | 0.737 | 0.506 | 0.656 | 0.195 | 0.118 | 0.0962 | 0.684 | 0.365 | 0.397 | 0.292 | 0.756 | 0.614 | 0.654 | 0.473 | – |
| NCI-H322M | – | 0.884 | 1 | 0.972 | 0.796 | 0.898 | 0.952 | 0.788 | 0.38 | 0.507 | 0.522 | 0.521 | 0.485 | 0.607 | 0.608 | 0.619 | 0.544 | 0.823 |
